In patent US9375000B2, “Pesticidal arylpyrrolidines” (Bayer Intellectual Property GmbH, priority 2011, dated 2016):

Experiments:
Type in all cases: in vivo
[1] = tested on: Two-Spotted Spider Mite (Tetranychus urticae); assay: Two-spotted spider mite (Tetranychus urticae) spray test on kidney bean; conditions: active compound concentration 20 ppm, after 7 days
Description: (§1) Unless not mentioned otherwise, the test solutions were prepared as follows:
(§2) Solvent: 3 parts by weight Dimethylformamide
(§3) Emulsifier: 1 part by weight Polyoxyethylene alkyl phenyl ether
(§4) In order to make an appropriate formulation of an active compound, 1 part by weight of the active compound is mixed with the above mentioned amount of solvent and emulsifier and the mixture is diluted with water to a prescribed concentration. Ammonium salt or ammonium salt and penetration enhancer in a dosage of 1000 ppm are added to the desired concentration if necessary.
50 to 100 adult mites of Tetranychus urticae were inoculated to leaves of kidney bean at two-leaf stage planted in a pot of 6 cm in diameter. After one day, test solution at the appropriate concentration was sprayed thereon in a sufficient amount using a spray gun. After the spraying, the plant pot was placed inside a greenhouse, and after 7 days, the acaricidal activity was calculated. An acaricidal activity of 100% means that all mites were killed, whereas an acaricidal activity of 0% means that no mite was killed.

[2] = tested on: Larvae of Spodoptera litura; assay: Larvae of Spodoptera litura, method using artificial feeds; conditions: artificial feed, after 7 days
Description: as §1, §2, §3, §4
[A Method Using Artificial Feeds (Trade Name: Insecta LFM, Manufactured by Nosan Corporation)]
Powdery artificial feeds (2.3 g) were added to a plastic cup (diameter: 7.5 cm, height: 4 cm) to achieve a certain thickness. Water-diluted liquid (5 ml) of the active compound prepared above having predetermined concentration was evenly poured thereto and allowed to stand until the feeds were solidified. Five of the 3rd-instar larvae of Spodoptera litura were released in respective cups, and covered. The cups were put in a temperature controlled room at 25° C. and humidity of 50 to 60%, and the number of dead larvae after 7 days was determined to calculate the pesticidal ratio. 100% pesticidal ratio means death of all the larvae, while 0% pesticidal ratio means no dead larvae.

[3] = tested on: Cucurbit Leaf Beetle (Aulacophora femoralis); assay: Cucurbit leaf beetle (Aulacophora femoralis) cucumber leaf dip test; conditions: after 7 days
Description: as §1, §2, §3, §4
Leaves of cucumber were immersed in the test solution at the appropriate concentration, and the leaves were dried in air. The leaves were then put in a plastic cup containing sterilized black soil and five Aulacophora femoralis at second instar larvae were released in the cup. The cups were placed in a temperature-controlled chamber at 25° C. After 7 days, the number of dead larvae was counted, and thus the insecticidal activity was calculated. An insecticidal activity of 100% means that all larvae were killed, whereas an insecticidal activity of 0% means that no larva was killed.

[4] = active compound concentration 20 ppm
[5] = active compound concentration 4 ppm

CCC(=O)NCc1ccc(N2CCC(c3cccc(C(F)(F)F)c3)(C(F)(F)F)C2O)nc1C(F)(F)F (racemic) [A3-222]
100%: acaricidal activity [1] | insecticidal activity (pesticidal ratio) [2, 4] | insecticidal activity [3, 4]

CCC(=O)NCc1ccc(N2CCC(c3cc(Cl)c(F)c(Cl)c3)(C(F)(F)F)C2O)cc1C(F)(F)F (stereo not shown) [A1-272]
100%: acaricidal activity [1] | insecticidal activity (pesticidal ratio) [2, 4] | insecticidal activity [3, 4]

CS(=O)(=O)CC(=O)NCc1cnc(N2CCC(c3cc(Cl)c(Cl)c(Cl)c3)(C(F)(F)F)C2O)nc1C(F)(F)F (stereo not shown) [A4-22]
100%: acaricidal activity [1] | insecticidal activity (pesticidal ratio) [2, 4] | insecticidal activity [3, 4]

O=C(NCc1ccc(N2CCC(c3cc(Cl)c(Cl)c(Cl)c3)(C(F)(F)F)C2O)cc1Br)C1CC1 (mixture of isomers) [A1-165]
100%: acaricidal activity [1] | insecticidal activity (pesticidal ratio) [2, 4] | insecticidal activity [3, 4]

CCC(=O)NCc1ccc(N2CCC(c3cc(F)c(F)c(F)c3)(C(F)(F)F)C2O)cc1C(F)(F)F (stereo not shown) [A1-261]
100%: acaricidal activity [1] | insecticidal activity (pesticidal ratio) [2, 5] | insecticidal activity (pesticidal ratio) [2, 4] | insecticidal activity [3, 4]

O=C(NCc1ccc(N2CCC(c3cc(Cl)cc(Cl)c3)(C(F)(F)F)C2O)cc1C(F)(F)F)C1CCC1 (stereo not shown) [A1-361]
100%: acaricidal activity [1] | insecticidal activity (pesticidal ratio) [2, 4] | insecticidal activity [3, 4]

O=C(NCc1ccc(N2CCC(c3cccc(C(F)(F)F)c3)(C(F)(F)F)C2O)cc1C(F)(F)F)C1CC1 (racemic) [A1-297]
100%: acaricidal activity [1] | insecticidal activity (pesticidal ratio) [2, 4] | insecticidal activity [3, 4]

O=C(NCc1ccc(N2CCC(c3cc(Cl)c(F)c(Cl)c3F)(C(F)(F)F)C2O)nc1Br)C1CC1 (stereo not shown) [A3-326]
100%: acaricidal activity [1] | insecticidal activity (pesticidal ratio) [2, 5] | insecticidal activity [3, 5]

CC(=O)NCc1ccc(N2CCC(c3cc(C(F)(F)F)cc(C(F)(F)F)c3)(C(F)(F)F)C2O)cc1Cl (stereo not shown) [A1-23]
100%: acaricidal activity [1] | insecticidal activity (pesticidal ratio) [2, 4] | insecticidal activity [3, 4]

C[S+]([O-])CC(=O)NCc1cnc(N2CCC(c3cc(Cl)c(Cl)c(Cl)c3)(C(F)(F)F)C2O)nc1C(F)(F)F (stereo not shown) [A4-21]
100%: acaricidal activity [1] | insecticidal activity (pesticidal ratio) [2, 4] | insecticidal activity [3, 4]

CC(=O)NCc1ccc(N2CCC(c3cc(C(F)(F)F)cc(C(F)(F)F)c3)(C(F)(F)F)C2O)cc1F (mixture of isomers) [A1-205]
100%: acaricidal activity [1] | insecticidal activity (pesticidal ratio) [2, 4] | insecticidal activity [3, 4]

Cc1nc(N2CCC(c3cc(Cl)c(Cl)c(Cl)c3)(C(F)(F)F)C2O)ccc1CNC(=O)C1CC1 (stereo not shown) [A3-82]
100%: acaricidal activity [1] | insecticidal activity (pesticidal ratio) [2, 4] | insecticidal activity [3, 4]

CS(=O)(=O)CC(=O)NCc1ccc(N2CCC(c3cc(Cl)cc(C(F)(F)F)c3)(C(F)(F)F)C2O)cc1C(F)(F)F (stereo not shown) [A1-347]
100%: acaricidal activity [1] | insecticidal activity (pesticidal ratio) [2, 4] | insecticidal activity [3, 4]

CCC(=O)NCc1ccc(N2CCC(c3cc(C(F)(F)F)cc(C(F)(F)F)c3)(C(F)(F)F)C2O)nc1C (stereo not shown) [A3-123]
100%: acaricidal activity [1] | insecticidal activity (pesticidal ratio) [2, 4] | insecticidal activity [3, 4]

O=C(CC(F)(F)F)NCc1ccc(N2CCC(c3cc(C(F)(F)F)cc(C(F)(F)F)c3)(C(F)(F)F)C2O)nc1Br (stereo not shown) [A3-161, N-[(6-{3-[3,5-bis(trifluoromethyl)phenyl]-2-hydroxy-3-(trifluoromethyl)pyrrolidin-1-yl}-2-bromopyridin-3-yl)methyl]-3,3,3-trifluoropropanamide]
100%: pest or weed control at 20 ppm ([1]; Tetranychus urticae, 168 h, read-out: acaricidal activity) | pest or weed control at 20 ppm ([2]; Spodoptera litura, 168 h, active compound concentration 20 ppm, read-out: insecticidal activity (pesticidal ratio)) | pest or weed control at 20 ppm ([3]; Aulacophora, foliar, 168 h, active compound concentration 20 ppm, read-out: insecticidal activity)

CCC(=O)NCc1ccc(N2CCC(c3cc(C(F)(F)F)cc(C(F)(F)F)c3)(C(F)(F)F)C2O)cc1Cl (stereo not shown) [A1-24]
100%: acaricidal activity [1] | insecticidal activity (pesticidal ratio) [2, 4] | insecticidal activity [3, 4]

CCC(=O)NCc1ccc(N2CCC(c3ccc(F)c(C(F)(F)F)c3)(C(F)(F)F)C2O)cc1C(F)(F)F (racemic) [A1-305]
100%: acaricidal activity [1] | insecticidal activity (pesticidal ratio) [2, 4] | insecticidal activity [3, 4]

COCCC(=O)NCc1ccc(N2CCC(c3cc(C(F)(F)F)cc(C(F)(F)F)c3)(C(F)(F)F)C2O)cc1Cl (stereo not shown) [A1-30]
100%: acaricidal activity [1] | insecticidal activity (pesticidal ratio) [2, 4] | insecticidal activity [3, 4]

O=C(NCc1ccc(N2CCC(c3cc(C(F)(F)F)cc(C(F)(F)F)c3)(C(F)(F)F)C2O)cc1F)C1CC1 (mixture of isomers) [A1-209]
100%: acaricidal activity [1] | insecticidal activity (pesticidal ratio) [2, 4] | insecticidal activity [3, 4]

CSCC(=O)NCc1cnc(N2CCC(c3cc(C(F)(F)F)cc(C(F)(F)F)c3)(C(F)(F)F)C2O)nc1C(F)(F)F (stereo not shown) [A4-31]
100%: acaricidal activity [1] | insecticidal activity (pesticidal ratio) [2, 4] | insecticidal activity [3, 4]

O=C(CC(F)(F)F)NCc1cnc(N2CCC(c3cc(Cl)c(Cl)c(Cl)c3)(C(F)(F)F)C2O)nc1C(F)(F)F (stereo not shown) [A4-18]
100%: acaricidal activity [1] | insecticidal activity (pesticidal ratio) [2, 4] | insecticidal activity [3, 4]

CCC(=O)NCc1ccc(N2CCC(c3cc(Cl)c(Cl)c(Cl)c3)(C(F)(F)F)C2O)cc1F (mixture of isomers) [A1-151]
100%: acaricidal activity [1] | insecticidal activity (pesticidal ratio) [2, 4] | insecticidal activity [3, 4]

O=C(CC1CC1)NCc1ccc(N2CCC(c3cc(C(F)(F)F)cc(C(F)(F)F)c3)(C(F)(F)F)C2O)nc1C(F)(F)F (stereo not shown) [A3-28]
100%: acaricidal activity [1] | insecticidal activity (pesticidal ratio) [2, 4] | insecticidal activity [3, 4]

CC(=O)NCc1ccc(N2CCC(c3cc(Cl)cc(Cl)c3)(C(F)(F)F)C2O)nc1C(F)(F)F (stereo not shown) [A3-1]
100%: acaricidal activity [1] | insecticidal activity (pesticidal ratio) [2, 4] | insecticidal activity [3, 4]

O=C(CC(F)(F)F)NCc1ccc(N2CCC(c3cccc(C(F)(F)F)c3)(C(F)(F)F)C2O)nc1C(F)(F)F (racemic) [A3-227]
100%: acaricidal activity [1] | insecticidal activity (pesticidal ratio) [2, 4] | insecticidal activity [3, 4]

C[S+]([O-])CC(=O)NCc1ccc(N2CCC(c3cc(Cl)cc(Cl)c3)(C(F)(F)F)C2O)cc1C(F)(F)F (stereo not shown) [A1-43]
100%: acaricidal activity [1] | insecticidal activity (pesticidal ratio) [2, 4] | insecticidal activity [3, 4]

Cc1nc(N2CCC(c3cc(C(F)(F)F)cc(C(F)(F)F)c3)(C(F)(F)F)C2O)ccc1CNC(=O)CC(F)(F)F (stereo not shown) [A3-128]
100%: acaricidal activity [1] | insecticidal activity (pesticidal ratio) [2, 4] | insecticidal activity [3, 4]

O=C(CC(F)(F)F)NCc1ccc(N2CCC(c3cc(C(F)(F)F)cc(C(F)(F)F)c3)(C(F)(F)F)C2O)nc1C(F)(F)F (stereo not shown) [A3-29]
100%: acaricidal activity [1] | insecticidal activity (pesticidal ratio) [2, 4] | insecticidal activity [3, 4]

CC(=O)NCc1ccc(N2CCC(c3cc(Cl)c(Cl)c(Cl)c3)(C(F)(F)F)C2O)nc1C(F)(F)F (stereo not shown) [A3-12]
100%: acaricidal activity [1] | insecticidal activity (pesticidal ratio) [2, 4] | insecticidal activity [3, 4]

CCC(=O)NCc1cc(F)c(N2CCC(c3cc(Cl)c(Cl)c(Cl)c3)(C(F)(F)F)C2O)cc1F (stereo not shown) [A1-454]
100%: acaricidal activity [1] | insecticidal activity (pesticidal ratio) [2, 4] | insecticidal activity [3, 4]
